Assay results taken from US8420122B2, “Process for the precipitation and isolation of 6,6-dimethyl-3-aza-bicyclo [3.1.0] hexane-amide compounds by controlled precipitation and pharmaceutical formulations containing same” (Merck Sharp & Dohme Corp., priority 2006, dated 2013).
Read-outs that look alike come from different tables or passages of the source.

How the values were obtained:
[1] = Aggregated / median particle size and size distribution; assay type: physicochemical; conditions: for Aggregated particle size: additional runs A, B, C (mixing Tee)
Protocol: As used herein “median precipitated particle size” “median aggregate particle size” and “particulate size distribution” are determined by Laser Diffraction […] measurements.

[2] = BET surface area (bulk surface area); assay type: physicochemical; conditions: for bulk surface area after distillation step: final granulate product
QT/QTc intervals = test: QT/QTc study, mean QTcF change from time-matched baseline; conditions: for QT interval (mean QTcF change from time-matched baseline): Day 5, relative to placebo
Protocol: A study was conducted to evaluate the effect of both a therapeutic (800 mg TID) and a supratherapeutic (1200 mg TID) dose of the compound of Formula B at steay-state on QT/QTc intervals, as measured by mean maximum change from time-matched baseline ECG recordings compared to placebo.
Thirty-six subjects who met entry criteria received one of four study treatments for Days 1 to 5 of each treatment period. This study was conducted in a 4-way crossover manner so that subjects were randomized to receive the 4 study treatments in one of four sequences. Prior to treatment crossover, subjects completed an approximately 1-week outpatient washout period.

[3] = Primary particle size and morphology by Scanning Electron Microscopy (SEM); assay type: physicochemical
Protocol: As used herein “primary particle” is the initially formed particles nucleated by combining a solution and anti-solvent. “Primary particle size” refers to the size of a primary particle and is determined by Scanning Electron Microscopy (SEM).
For the Examples which follow, particle size information was acquired by measuring the particulate material produced in the slurry using Focused Beam Reflectance Measurements (FBRM) performed with a Lasentec probe from Mettler Toledo in accordance with manufacturers directions for obtaining such measurements. Measurements were carried out on a sample of the slurry as obtained from the holding tank prior to vacuum distillation. The procedure and equipment can measure particulate materials over a size range of from 1 micron up to 1000 microns. Primary particle size was characterized qualitatively by Scanning Electron Microscopy (SEM). Changes in particle aggregation and aggregate morphology were observed by SEM under various conditions to determine softening point of the precipitated material. For SEM determination of softening point, a sample of the slurry was obtained periodically at each temperature interval as the slurry was heated. The solids in the sample were collected by filtration, dried under vacuum for 1 to 2 hours and the dried sample was examined using conventional SEM. […]

[4] = Comparative PK Results-2: Day 5 multiple-dose pharmacokinetics; assay type: in vivo, human; conditions: for Tmax: read-out: Tmax, median; for half-life: read-out: t1/2, mean (converted)
Protocol: Pharmacokinetic samples for the determination of plasma concentrations of the compound of Formula B were collected on Day 5 of each period. PK samples were collected predose (0 hour), 1, 2, 3, 4, 6, 8, 12, and 24-hours postdose.

[5] = Bulk density / tapped density; assay type: physicochemical
Protocol: The particulate prepared above was recovered by pressure filtration and vacuum dried under house vacuum (approximately 60 to 70 torr) for 2 hours at 25 C followed by 8 hours of house vacuum at 35 C. The product was finish-dried at 45 C under house vacuum for an additional 16 hours. The dried particulate was evaluated and found to have a primary particle size ranging from less than 1 micron up to about 2 microns. The specific surface area (BET absorption method) was determined to be about 19.11 m2/g. The bulk density of isolated material was determined by weighing a 25 ml (unpacked) sample.

[6] = Chord length by Focused Beam Reflectance Measurements (FBRM); assay type: physicochemical; conditions: Example I first run, slurry, 0.41 M MTBE solution, 20° C.
Protocol: (§1) For the Examples which follow, particle size information was acquired by measuring the particulate material produced in the slurry using Focused Beam Reflectance Measurements (FBRM) performed with a Lasentec probe from Mettler Toledo in accordance with manufacturers directions for obtaining such measurements. Measurements were carried out on a sample of the slurry as obtained from the holding tank prior to vacuum distillation. The procedure and equipment can measure particulate materials over a size range of from 1 micron up to 1000 microns. Primary particle size was characterized qualitatively by Scanning Electron Microscopy (SEM). Changes in particle aggregation and aggregate morphology were observed by SEM under various conditions to determine softening point of the precipitated material. For SEM determination of softening point, a sample of the slurry was obtained periodically at each temperature interval as the slurry was heated. The solids in the sample were collected by filtration, dried under vacuum for 1 to 2 hours and the dried sample was examined using conventional SEM. […] The softening point was inferred from the sampling temperature at which the precipitate began to show loss of nodular particle appearance when examined by SEM in this manner.

[7] = Softening point of precipitate (FBRM during controlled heating); assay type: physicochemical
Protocol: as §1
Verified by SEM observations, it was shown also that softening point could be determined from FBRM measurements (taken in accordance with manufactures instructions) made on a sample of the slurry undergoing controlled heating. […] FBRM measurements were obtained continuously during the heating cycle and the softening point was determined to be the temperature corresponding to the maxima in the particle count curve over the heating regime.
A precipitate slurry of the compound of Formula B was prepared by setting the flow control valves to supply 3400 ml/min. of n-heptane and 840 ml/min of the MTBE/compound of Formula B solution. […] An aliquot of the slurry thus produced was also evaluated to determine the softening point of the precipitate therein. […] In this manner the softening temperature was determined to be at 36.2 C.

[8] = additional runs A, B, C, precipitate before distillation
[9] = Example I first run, dried particulate
[10] = Example I second run, isolated material
[11] = 800 mg TID, Day 5, healthy subjects, n = 31
[12] = human, plasma, oral, 800 mg TID, Day 5, healthy subjects, n = 31
[13] = human, plasma, oral, 1200 mg TID, Day 5, healthy subjects, n = 35
[14] = Comparative Example I, stirred batch reactor

SMILES: CC(C)(C)NC(=O)NC(C(=O)N1CC2C([C@H]1C(=O)NC(CC1CCC1)C(=O)C(N)=O)C2(C)C)C(C)(C)C (stereo partly shown) [Example B1]
- Aggregated particle size [1]: 10-20 microns
- BET Surface area [2, 8]: 32.75 m^2/g

SMILES: CC(C)(C)NC(=O)NC(C(=O)N1CC2C([C@H]1C(=O)NC(CC1CCC1)C(=O)C(N)=O)C2(C)C)C(C)(C)C (stereo partly shown) [Example C4]
- Aggregated particle size [1]: 10-20 microns

SMILES: CC(C)(C)NC(=O)NC(C(=O)N1CC2C([C@H]1C(=O)NC(CC1CCC1)C(=O)C(N)=O)C2(C)C)C(C)(C)C (stereo partly shown) [Example B2]
- Aggregated particle size [1]: 10-20 microns
- BET Surface area [2, 8]: 25.68 m^2/g

SMILES: COc1c(N2C[C@@H]3CCCN[C@@H]3C2)c(F)cc2c(=O)c(C(=O)O)cn(C3CC3)c12 [moxifloxacin, reference compound]
- QT/QTc interval (mean QTcF change from time-matched baseline) (QT/QTc intervals; 400 mg QD, positive control): lengthened QT/QTc interval

SMILES: CC(C)(C)NC(=O)NC(C(=O)N1CC2C([C@H]1C(=O)NC(CC1CCC1)C(=O)C(N)=O)C2(C)C)C(C)(C)C (stereo partly shown) [Example C2]
- Aggregated particle size [1]: 0.25-18 microns
- BET Surface area [2, 8]: 32.41 m^2/g
- bulk surface area after distillation step [2]: 6.31 m^2/g

SMILES: CC(C)(C)NC(=O)NC(C(=O)N1CC2C([C@H]1C(=O)NC(CC1CCC1)C(=O)C(N)=O)C2(C)C)C(C)(C)C (stereo partly shown) [Example A3]
- Aggregated particle size [1]: 20-30 microns
- BET Surface area [2, 8]: 17.41 m^2/g

SMILES: CC(C)(C)NC(=O)NC(C(=O)N1CC2C([C@H]1C(=O)NC(CC1CCC1)C(=O)C(N)=O)C2(C)C)C(C)(C)C (stereo partly shown) [Example A2]
- Aggregated particle size [1]: 10-20 microns
- BET Surface area [2, 8]: 16.44 m^2/g

SMILES: CC(C)(C)NC(=O)NC(C(=O)N1CC2C([C@H]1C(=O)NC(CC1CCC1)C(=O)C(N)=O)C2(C)C)C(C)(C)C (stereo partly shown) [Example C1]
- Aggregated particle size [1]: 0.25-25.5 microns
- BET Surface area [2, 8]: 24.85 m^2/g
- bulk surface area after distillation step [2]: 6.13 m^2/g

SMILES: CC(C)(C)NC(=O)NC(C(=O)N1CC2C([C@H]1C(=O)NC(CC1CCC1)C(=O)C(N)=O)C2(C)C)C(C)(C)C (stereo partly shown) [Example C3]
- Aggregated particle size [1]: 10-20 microns

SMILES: CC(C)(C)NC(=O)NC(C(=O)N1CC2C([C@H]1C(=O)NC(CC1CCC1)C(=O)C(N)=O)C2(C)C)C(C)(C)C (stereo partly shown) [Example A1]
- Aggregated particle size [1]: 10-20 microns
- BET Surface area [2, 8]: 30.19 m^2/g

SMILES: CC(C)(C)NC(=O)NC(C(=O)N1CC2C([C@H]1C(=O)NC(CC1CCC1)C(=O)C(N)=O)C2(C)C)C(C)(C)C (stereo partly shown) [Example B3]
- Aggregated particle size [1]: 10-20 microns
- BET Surface area [2, 8]: 32.00 m^2/g

SMILES: CC(C)(C)NC(=O)NC(C(=O)N1CC2C([C@H]1C(=O)NC(CC1CCC1)C(=O)C(N)=O)C2(C)C)C(C)(C)C (stereo partly shown) [Example B4]
- BET Surface area [2, 8]: 24.24 m^2/g

SMILES: CC(C)(C)NC(=O)NC(C(=O)N1CC2C([C@H]1C(=O)NC(CC1CCC1)C(=O)C(N)=O)C2(C)C)C(C)(C)C (stereo partly shown) [compound of Formula B, 3-[2-(3-tert-Butyl-ureido)-3,3-dimethyl-butyryl]-6,6-dimethyl-3-aza-bicyclo[3.1.0]hexane-2-carboxylic acid (2-carbamoyl-1-cyclobutylmethyl-2-oxo-ethyl)-amide]
- primary particle size [3, 9]: less than 1 micron up to about 2 microns
- primary particle size ([3]; Example I second run, after distillation, isolated material): less than 1 micron
- QT interval (mean QTcF change from time-matched baseline) (QT/QTc intervals; 800 mg therapeutic dose (LD) TID): does not prolong the QT interval
- QT interval (mean QTcF change from time-matched baseline) (QT/QTc intervals; 1200 mg supratherapeutic dose (HD) TID): does not prolong the QT interval
- agglomerated average particle size [1, 10]: 11 microns
- median particulate size ([1]; Example II precipitate): 1.57 microns
- median particulate size ([1]; Example III precipitate): 1.46 microns
- CL/F, mean [4, 11]: 158 L/h
- Cmin, mean [4, 11]: 61.9 ng/mL
- CL/F, mean ([4]; 1200 mg TID, Day 5, healthy subjects, n = 35): 196 L/h
- AUC ([4]; human, plasma, oral, 800 mg, 800 mg TID, Day 5, healthy subjects, n = 31, read-out: AUC(τ), mean): 5320 ng·h/mL
- Cmax ([4]; human, plasma, oral, 800 mg, 800 mg TID, Day 5, healthy subjects, n = 31, sum of diastereomers, read-out: Cmax, mean): 1690 ng/mL
- AUC ([4]; human, plasma, oral, 800 mg, 800 mg TID, Day 5, read-out: Individual AUC(τ) values, range): 3250 to 8900 ng·h/mL
- Cmax ([4]; human, plasma, oral, 800 mg, 800 mg TID, Day 5, read-out: Individual Cmax values, range): 1150 to 2500 ng/mL
- AUC ([4]; human, plasma, oral, 1200 mg, 1200 mg TID, Day 5, healthy subjects, n = 35, read-out: AUC(τ), mean): 6500 ng·h/mL
- Cmax ([4]; human, plasma, oral, 1200 mg, 1200 mg TID, Day 5, healthy subjects, n = 35, sum of diastereomers, read-out: Cmax, mean): 1940 ng/mL
- AUC ([4]; human, plasma, oral, 1200 mg, 1200 mg TID, Day 5, read-out: Individual AUC(τ) values, range): 2500 to 9400 ng·h/mL
- Cmax ([4]; human, plasma, oral, 1200 mg, 1200 mg TID, Day 5, read-out: Individual Cmax values, range): 1100 to 3150 ng/mL
- Vd/F [4, 12]: 530 L
- Tmax [4, 12]: 2 h
- half-life [4, 12]: 2.31 h
- Vd/F [4, 13]: 879 L
- concentration at 5 day ([4]; human, plasma, oral, 1200 mg TID, Day 5, healthy subjects, n = 35, read-out: Cmin, mean): 79.9 ng/mL
- Tmax [4, 13]: 2 h
- half-life [4, 13]: 3.01 h
- bulk density [5, 14]: 0.16 g/mL
- bulk density ([5]; Example I first run, isolated material): 0.3 g/mL
- bulk density average ([5]; Example I second run, isolated particulate): 0.191 g/cm³
- bulk density ([5]; Example II precipitate): 0.23 g/mL
- bulk density ([5]; Example III precipitate): 0.18 g/mL
- average chord length of agglomerated particulate [6]: 15.8 microns
- softening point of the wet cake [7, 14]: below 30 °C
- softening temperature ([7]; Example I first run, slurry aliquot heated 1 C/min): 36.2 C
- softening point ([7]; Example I second run, slurry distilled to about 35% of original volume): 51.6 °C
- BET Surface area [2, 14]: 1.76 m^2/g
- specific surface area (BET absorption method) [2, 9]: about 19.11 m2/g
- average bulk surface area (BET) [2, 10]: about 10.3 m^2/g
- bulk surface area ([2]; Example II precipitate): 8.14 m^2/g
- bulk surface area ([2]; Example III precipitate): 7.2 m^2/g
